Values of other authors as cited in patent publication US9820991B2, “Pharmaceutical composition comprising brinzolamide” (SENTISS PHARMA PVT. LTD., priority 2013, dated 2017).

Conditions: in tear fluid

CCN[C@H]1CN(CCCOC)S(=O)(=O)c2sc(S(N)(=O)=O)cc21 [brinzolamide, (R)-(+)-4-Ethylamino-2-(3-methoxypropyl)-3,4-dihydro-2H-thieno [3,2-e]-1,2-thiazine-6-sulfonamide-1,1-dioxide]
solubility: around 0.08%
